Several values for one entry are separate records, joined by “and”; a condition that tells them apart may be missing. Equal entries are not always repeated. Where two headings read alike, the source gives them in different places. Marks after values point to notes of the source that are not given here.
Experiments:
Cotton pellet Granuloma = assay: Sub acute study: cotton pellet granuloma; format: in vivo, Swiss Wistar rats; conditions: dried pellet weight after 7 days
Method: This evaluates inflammation over a period of 7 days. This is done by classical animal model (in Swiss Wistar tats) of cotton pallet granuloma. Celecoxib is a positive control for comparison of the efficacy of Test Compound.
100 mg per kg is the optimal dose. A comparison is made with Celecoxib.

[1] = tested on: paw edema in Carrageenan model; assay: Acute study: Carrageenan induced paw edema; format: in vivo, Swiss Wistar rats; conditions: paw volume at 3 hrs
Method: These tests are for the inhibition of inflammation caused by prostaglandins in short period of time. This can be tested in animal (Swiss Wistar rats) as per well known protocols which are treated with Carrageenan. This model tests out anti-inflammatory activity caused by prostaglandin inhibition. Celecoxib is given as a positive control to do a comparison and evaluate the efficacy of anti-inflammatory purified extract as described above in Prostaglandin inhibition in 3 hrs.
Paw Volume measured is compared with Control group and standard drug, celecoxib. Paw volume initial to the paw volume at 1 h, 2 h, 3 h is measured and peak inhibition, which is at 3 hrs is noted down. In this model efficacy as well as dosage of drug is arrived by considering peak % inhibition. […] This is also not statistically significant.

gastric mucosa = assay: Gastric ulcerogenic effects after repeated oral administration; format: in vivo, male Swiss Wistar rats; conditions: for Mean score of Lesion intensity: 7 consecutive days
Text: Gastric ulcerogenic effects of Test compound and celecoxib after repeated oral administration for 7 consecutive days to the male Swiss Wistar rats.
In the control group, structure of the gastric mucosa appears normal.

TNF-α = TNF-α level in serum of FCA induced arthritic rat; format: in vivo
Method: (§1) This activity mimics the onset of autoimmune damage to joints and tests the efficiency of drug against this damage. Leflunamide is taken as positive control. Here Swiss Wistar rats are treated with Freunds Complete Adjuvant (CFA) to induce chronic inflammation symptoms similar to rheumatis diseases. The symptoms appear by 13th day. The drug treatment is started from 13th day to 23rd day for 10 days.
Effect of Test compound and standard drug Celecoxib on TNF-α level in FCA induced arthritis rat. The serum from the FCA induced arthritic rat was examined for Tumor necrosis factor alpha. The experimental protocol was same as example no.

FCA induced arthritis = assay: Chronic study: FCA (Freunds Complete Adjuvant) induced arthritis; format: in vivo, Swiss Wistar rats; conditions: for Anti-inflammatory activity (% Inhibition) in FCA induced arthritis Day 18: treatment from 13th day
Method: as §1
In addition, a disseminated arthritic reaction (secondary response) developed from […] alter FCA injection. The swelling was observed both in the injected paw and in the non-injected contra lateral paw. The reduction of the planter volume was statistically significant for both hind legs. The test compound gave a very impressive reduction of 52% at 100 mg per kg dose which is statistically significant. This compared very well with DMARD drug Leflunomide. However, Leflunomide is highly nephrotoxic and cannot be administered for a long time.

C-reactive protein = C-reactive protein test (CRP test kit) in FCA arthritis model; format: in vivo, Swiss Wistar rats; conditions: for C-reactive protein After 10 Day Treatment / C-reactive protein Before Treatment: CRP test kit, precipitate
Method: This activity mimics the onset of autoimmune damage to joints and tests the efficiency of drug against this damage. Leflunamide is taken as positive control. Here Swiss Wistar rats are treated with Freunds Complete Adjuvant (CFA) to induce chronic inflammation symptoms similar to rheumatis diseases. The symptoms appear by 13th day. The drug treatment is started from 13th day to 23rd day for 10 days. […] In this method the CRP test kit ([…], Dreadnought Trading Estate Bridgeport Dorset DT6 5BU UK) was used for the measurement of CRP. The results are expressed either […] or -ve depending on the formation of precipitate Normal range of CRP: up to 6 mg/L. Below this level is considered to be negative.

[2] = tested on: patients with rheumatoid arthritis
[3] = male, Swiss Wistar, rat, in vivo, po, 5 mg/kg, 7 days
[4] = out of the total 70 patients recruited

Compound: Cc1ccc(-c2cc(C(F)(F)F)nn2-c2ccc(S(N)(=O)=O)cc2)cc1 [Celecoxib, reference compound]
- Anti-inflammatory activity (% Inhibition) in Cotton pellet Granuloma (Cotton pellet Granuloma; Dose 10 mg/kg): 43.2** %
- Anti-inflammatory activity (% Inhibition) in Carrageenan model In 3 Hrs. ([1]; Dose 10 mg/kg): 45.2** %
- Mean score of Lesion intensity (gastric mucosa; Dose 5 mg/kg p.o.): 1.6
- Average of no. of ulcer per animal (gastric mucosa; [3]): 2
- No. of animals with ulcer (gastric mucosa; [3]): 2
- No. of animals with ulcer (%) (gastric mucosa; [3]): 33.3%
- Ulcer Index (UI) (gastric mucosa; [3]): 3.7
- Concentration of TNF-α in pg/mL Day 0 (TNF-α): 28.9 pg/mL
- Concentration of TNF-α in pg/mL Day 13 (TNF-α): 47.9 pg/mL
- Concentration of TNF-α in pg/mL Day 21 (TNF-α; Day 21): 33.6 pg/mL

Compound: Cc1oncc1C(=O)Nc1ccc(C(F)(F)F)cc1 [Leflunamide, reference compound]
- Anti-inflammatory activity (% Inhibition) in FCA induced arthritis Day 18 (FCA induced arthritis; Dose 10 mg/kg): 35.22* %
- Anti-inflammatory activity (% Inhibition) in FCA induced arthritis Day 23 (FCA induced arthritis; Dose 10 mg/kg, treatment 13th to 23rd day): 76.55** %
- C-reactive protein After 10 Day Treatment (C-reactive protein): Negative (Normal range of CRP: up to 6 mg/L. Below this level is considered to be negative)
- C-reactive protein Before Treatment (C-reactive protein): Negative (Normal range of CRP: up to 6 mg/L. Below this level is considered to be negative)

Compound: CC(COC1OC(CO)C(O)C(O)C1O)C(C)CC1(O)CC2CC3C4CC=C5CC(OC6OC(CO)C(O)C(O)C6OC6OC(C)C(O)C(O)C6O)CCC5(C)C4CCC3(C)C2C1C (stereo not shown) [Test compound]
- Anti-inflammatory activity (% Inhibition) in FCA induced arthritis Day 18 (FCA induced arthritis; Dose 50 mg/kg): 18.04%
- Anti-inflammatory activity (% Inhibition) in FCA induced arthritis Day 23 (FCA induced arthritis; Dose 50 mg/kg, treatment 13th to 23rd day): 29.07* %
- Anti-inflammatory activity (% Inhibition) in FCA induced arthritis Day 18 (FCA induced arthritis; Dose 100 mg/kg): 32.38%
- Anti-inflammatory activity (% Inhibition) in FCA induced arthritis Day 23 (FCA induced arthritis; Dose 100 mg/kg, treatment 13th to 23rd day (text values print no day), 100 mg/kg): 52.81* %
- Anti-inflammatory activity (% Inhibition) in FCA induced arthritis Day 23 (FCA induced arthritis; Dose 100 mg/kg, treatment 13th to 23rd day (text values print no day), listed as test compound, 100 mg/kg): 52% and 56%
- Anti-inflammatory activity (% Inhibition) in FCA induced arthritis Day 18 (FCA induced arthritis; Dose 200 mg/kg): 25.41%
- Anti-inflammatory activity (% Inhibition) in FCA induced arthritis Day 23 (FCA induced arthritis; Dose 200 mg/kg, treatment 13th to 23rd day): 56.55* %
- C-reactive protein After 10 Day Treatment (C-reactive protein): Negative (Normal range of CRP: up to 6 mg/L. Below this level is considered to be negative)
- C-reactive protein Before Treatment (C-reactive protein): Negative (Normal range of CRP: up to 6 mg/L. Below this level is considered to be negative)
- C-reactive protein in FCA chronic arthritis model (in words) (C-reactive protein; after treatment): decrease in C-reactive protein
- Anti-inflammatory activity (% Inhibition) in Cotton pellet Granuloma (Cotton pellet Granuloma; Dose 50 mg/kg): 24.2* %
- Anti-inflammatory activity (% Inhibition) in Cotton pellet Granuloma (Cotton pellet Granuloma; Dose 100 mg/kg, 100 mg/kg): 33.2* %
- Anti-inflammatory activity (% Inhibition) in Cotton pellet Granuloma (Cotton pellet Granuloma; Dose 100 mg/kg, listed as test compound, 100 mg/kg): 32.3%
- Anti-inflammatory activity (% Inhibition) in Cotton pellet Granuloma (Cotton pellet Granuloma; Dose 200 mg/kg): 39.4** %
- Anti-inflammatory activity (% Inhibition) in Carrageenan model In 3 Hrs. ([1]; Dose 50 mg/kg): 26.49* %
- Anti-inflammatory activity (% Inhibition) in Carrageenan model In 3 Hrs. ([1]; Dose 100 mg/kg): 32.54* %
- Anti-inflammatory activity (% Inhibition) in Carrageenan model In 3 Hrs. ([1]; Dose 100 mg/kg, listed as test compound): 32.44%
- Anti-inflammatory activity (% Inhibition) in Carrageenan model In 3 Hrs. ([1]; Dose 200 mg/kg): 34.44* %
- Mean score of Lesion intensity (gastric mucosa; Dose 200 mg/kg p.o.): Nil
- Average of no. of ulcer per animal (gastric mucosa; rat, in vivo, po, 200 mg/kg): Nil
- No. of animals with ulcer (%) (gastric mucosa; rat, in vivo, po, 200 mg/kg): Nil
- Ulcer Index (UI) (gastric mucosa; rat, in vivo, po, 200 mg/kg): Nil
- HAQ (Health Assessment Questionnaire) 12 mths (mean) ([2]; 12 months): 4.4
- JCSW (Joint count swelling) 12 mths (mean) ([2]; 12 months): 1.6
- JCPT (Joint Count Pain/Tenders) 12 mths (mean) ([2]; 12 months, 16 mg per kg body weight): 5.5
- CRP (C Reactive Protein), nephlometry, over time ([2]; 12 months, FIG. 2, listed as test compound): reduction
- RF (Rheumatoid factor) Titre, nephlometry, over time ([2]; 12 months, FIG. 3, listed as test compound): reduction
- ESR 12 mths (mean) ([2]; 12 months, Westergren): 66
- painVAS (pain visual analogue scale) 12 mths (mean) ([2]; 12 months, scale 0-10 cms): 3.6
- patGlobal (patient global assessment) 12 mths (mean) ([2]; 12 months, scale 0-10 cms): 3.4
- phyGlobal (physician global assessment) 12 mths (mean) ([2]; 12 months, scale 0-10 cms): 2.6
- HAQ (Health Assessment Questionnaire) Baseline (mean) ([2]; Baseline): 8.8
- HDL BASELINE ([2]; Baseline): 44.6
- LDL BASELINE ([2]; Baseline): 117.08
- HDL/LDL BASELINE ([2]; Baseline ratio): 0.41
- JCSW (Joint count swelling) Baseline (mean) ([2]; Baseline, 66 joints): 9.5
- JCPT (Joint Count Pain/Tenders) Baseline (mean) ([2]; Baseline, 68 joints, 16 mg per kg body weight): 24.3
- ESR Baseline (mean) ([2]; Baseline, Westergren): 61.4
- painVAS (pain visual analogue scale) Baseline (mean) ([2]; Baseline, scale 0-10 cms): 6.6
- patGlobal (patient global assessment) Baseline (mean) ([2]; Baseline, scale 0-10 cms): 6.4
- phyGlobal (physician global assessment) Baseline (mean) ([2]; Baseline, scale 0-10 cms): 5.7
- Patients in Clinical Remission: Duration (Months) ([2]; Patient No. 019): 8 Months
- Patients in Clinical Remission: Duration (Months) ([2]; Patient No. 035*, ACR remission, ESR <30 mm): 3 Months
- Patients in Clinical Remission: Duration (Months) ([2]; Patient No. 037*, ACR remission, ESR <30 mm): 3 Months
- Patients in Clinical Remission: Duration (Months) ([2]; Patient No. 038*, ACR remission, ESR <30 mm): 3 Months
- Patients in Clinical Remission: Duration (Months) ([2]; Patient No. 049): 5 Months
- Patients in Clinical Remission: Duration (Months) ([2]; Patient No. 051): 2 Months
- Patients in Clinical Remission: Duration (Months) ([2]; Patient No. 054*, ACR remission, ESR <30 mm): 3 Months
- Patients in Clinical Remission: Duration (Months) ([2]; Patient No. 057): 6 Months
- Patients in Clinical Remission: Duration (Months) ([2]; Patient No. 059): 5 Months
- Patients in Clinical Remission: Duration (Months) ([2]; Patient No. 112*, ACR remission, ESR <30 mm): 7 Months
- Serum albumin ([2]; at 12 months, printed 95% CI—0.35, −2.90, listed as test compound): significant improvements
- Blood Urea Nitrogen ([2]; at 12 months, printed (95%) CI 1.2, 35, listed as test compound): significant improvements
- ESR Mean change ([2]; baseline to 12 months): −3.05
- Adverse alterations in routine haematology, biochemistry (renal and hepatic) and metabolic parameters ([2]; human, in vivo): no significant adverse alterations
- HDL/LDL ratio of rheumatic patients after treatment ([2]; human, in vivo): 0.45
- Laboratory values for SGOT, SGTP, GGT, Serum bilirubin and Serum creatinine ([2]; human, in vivo): No significant changes
- Side-effects recorded ([2]; human, in vivo): Minor side-effects
- HDL MEAN CHANGE ([2]; mean change from baseline): −1.57
- HDL/LDL MEAN CHANGE ([2]; mean change from baseline): −6.1
- LDL MEAN CHANGE ([2]; mean change from baseline): 12.7
- ACR 50 improvement response (patients responding) ([2]; one year study): 40%
- Patients who satisfied the ACR criteria for remission that also includes the ESR response ([2]; one year study): 5 patients
- ACR 20 improvement response (patients responding) ([2]; one year study, 20% improvement in ACR factors): 80%
- All clinical efficacy measures (ACR core set), overall result in words ([2]; one year study, P<0.05, listed as test compound): significant disease modifying anti-arthritic action
- Patients completely asymptomatic as per ACR core set clinical measures (percent) [2, 4]: 11.9%
- Patients completely asymptomatic as per ACR core set clinical measures / remission of disease [2, 4]: 10 patients
- Concentration of TNF-α in pg/mL Day 0 (TNF-α): 36.8 pg/mL
- Concentration of TNF-α in pg/mL Day 13 (TNF-α): 45.3 pg/mL
- Concentration of TNF-α in pg/mL Day 21 (TNF-α; Day 21): 36.1 pg/mL
- Concentration of TNF-α in pg/mL Day 21 (TNF-α; Day 21, listed as experimental drug): inhibits TNF-α
